For this assay, the system named is Acute hypoxia in mice; survival of the brain. The experiment in a line: Acute hypoxia in mice (hypobaric); brain survival time to final respiratory gasp. In kind it is in vivo, Male CD1 mice (Charles River). To be noted: Mus musculus, ip, 30 minutes before hypoxia, mice, read-out: Percentage increase in the survival time; for change in vivo at 100 mg/kg: 100 mg/kg I.P.; for change in vivo at 10 mg/kg: 10 mg/kg I.P.; for change in vivo at 30 mg/kg: 30 mg/kg I.P. As for the experimental part: The compounds of the present invention were tested in respect of their capacity to prolong the survival of cerebral tissue during acute hypoxia in mice, or to maintain the level of tissue energy-rich compounds in rats subjected to a fall in the oxygen supply [Pharmacology of Cerebral Ischemia, p. 334-339 (1968) Elsevier Science Publishers B.V., J. Krieglstein ed.]. […] Forsch. Drug. Res. (1986), 36 II No. 9, p. 1314-1320].
The survival of the brain is assessed by measuring the time at which the final respiratory gasp is observed.
The survival time of a treated batch is compared with that of a control batch receiving only the solvent.
The percentage increase in the survival time after the animals are treated with the compounds of the invention is shown in Table II.

The values that follow come from patent US4885299A, “2-(2,3-dihydro-2-oxo-3-benzofuranyl)acetic acids antihypoxic and nootropic effects having” (ADIR Et Cie, priority 1987, dated 1989).

Counter-ions that a name gives are not always drawn.

On to `O=C(O)CC1(c2ccccc2)C(=O)Oc2ccc(F)cc21` (stereo not shown) [Example 2, 2-(2,3-Dihydro-5-fluoro-2-oxo-3-phenyl-3-benzofuranyl)acetic acid], for which the change in vivo at 100 mg/kg stood at 38%. As for `O=C(O)CC1(c2ccccc2)C(=O)Oc2ccccc21` (stereo not shown) [Example 3, 2-(2,3-Dihydro-2-oxo-3-phenyl-3-benzofuranyl) acetic acid], the change in vivo at 100 mg/kg is 29%.

For the molecule `O=C(O)CC1(c2ccc(Cl)cc2)C(=O)Oc2ccccc21` (stereo not shown) [Example 4, 2-[3-(4-Chlorophenyl)-2,3-dihydro-2-oxo-3-benzofuranyl)acetic acid], the change in vivo at 100 mg/kg is 17%. In the case of `O=C(O)CC1(c2ccccc2)C(=O)Oc2ccc(O)cc21` (stereo not shown) [Example 5, 2-(2,3-Dihydro-5-hydroxy-2-oxo-3-phenyl-3-benzofuranyl)acetic acid], the change in vivo at 100 mg/kg was 69%. With `COc1ccc2c(c1)C(CC(=O)O)(c1ccccc1)C(=O)O2` (stereo not shown) [Example 6, 2-(2,3-Dihydro-5-methoxy-2-oxo-3-phenyl-3-benzofuranyl)acetic acid], the change in vivo at 100 mg/kg is 41%. Consider `O=C(CC1(c2ccccc2)C(=O)Oc2ccc(O)cc21)OCc1ccccc1` (stereo not shown) [Example 7], for which the change in vivo at 100 mg/kg stood at 14%. Where the note is “300 mg/kg I.P.”, the change in vivo at 300 mg/kg was 156%. Take `CCOC(=O)CC1(c2ccccc2)C(=O)Oc2ccc(Cl)cc21` (stereo not shown) [Example 8, 2-(5-Chloro-2,3-dihydro-2-oxo-3-phenyl-3-benzofuranyl)acetic acid ethyl ester]: the change in vivo at 100 mg/kg worked out at 52%. In the case of `CCN(CC)C(=O)CC1(c2ccccc2)C(=O)Oc2ccc(Cl)cc21` (stereo not shown) [Example 10, N,N-Diethyl-2-(5-chloro-2,3-dihydro-2-oxo-3-phenyl-3-benzofuranyl)acetamide], the change in vivo at 100 mg/kg was 97%. `CC(C)C[C@@H](C(=O)O)N(C)C(=O)CC1(c2ccccc2)C(=O)Oc2ccc(Cl)cc21` (stereo partly shown) [Example 11, N-Methyl-N-[2-(5-chloro-2,3-dihydro-2-oxo-3-phenyl-3-benzofuranyl)acetyl]leucine]: the change in vivo at 100 mg/kg is 159%.

Turning to `CCN(CC)CCN(C)C(=O)CC1(c2ccccc2)C(=O)Oc2ccc(Cl)cc21` (stereo not shown) [Example 12, N-Methyl-N-diethylaminoethyl-2-(5-chloro-2,3-dihydro-2-oxo-3-phenyl-3-benzofuranyl)acetamide hydrochloride], the change in vivo at 10 mg/kg stood at 41%, the change in vivo at 30 mg/kg is 84% and the change in vivo at 100 mg/kg is above 180%. Besides, the change in vivo at 3 mg/kg (3 mg/kg I.P.) came to 32%.

Turning to `O=C(O)[C@@H]1CCCN1C(=O)CC1(c2ccccc2)C(=O)Oc2ccc(Cl)cc21` (stereo partly shown) [Example 13, N-[2-(5-chloro-2,3-dihydro-2-oxo-3-phenyl-3-benzofuranyl)acetyl]proline], the change in vivo at 100 mg/kg was 8%.

In the case of `O=C(CC1(c2ccccc2)C(=O)Oc2ccc(Cl)cc21)N1CCOCC1` (stereo not shown) [Example 14, 2-(5-Chloro-2,3-dihydro-2-oxo-3-phenyl-3-benzofuranyl)-1-morpholino-1-oxoethane], the change in vivo at 100 mg/kg turned out to be 88%.

`O=C(CC1(c2ccccc2)C(=O)Oc2ccc(Cl)cc21)N1CCN(CCO)CC1` (stereo not shown) [Example 15, 2-(5-Chloro-2,3-dihydro-2-oxo-3-phenyl-3-benzofuranyl)-1-[4-(2-hydroxyethyl)piperazinyl]-1-oxoethane hydrochloride]: the change in vivo at 10 mg/kg is 34%, the change in vivo at 30 mg/kg was 41% and the change in vivo at 100 mg/kg is above 130%. Moreover, the change in vivo at 200 mg/kg (200 mg/kg I.P.) worked out at 203%. For `O=C(CC1(c2ccccc2)C(=O)Oc2ccc(Cl)cc21)N1CCN(Cc2ccccc2)CC1` (stereo not shown) [Example 17, 2-(5-Chloro-2,3-dihydro-2-oxo-3-phenyl-3-benzofuranyl)-1-(4-benzylpiperazinyl)-1-oxoethane], the change in vivo at 30 mg/kg was found to be 40% and the change in vivo at 100 mg/kg amounted to 66%.
